Our source for the half-life and IC50 values is patent US10689377B2 (Mirati Therapeutics, Inc., priority 2017, dated 2020).

A short description of data set [1]: In vitro stability in human whole blood. Format: in vitro ADME. Conditions: male, whole blood diluted to 50% with PBS, pH 7.4, human whole blood diluted to 50% with PBS, 5 μM, 37° C., 240-minute incubation, read-out: Compound Half-life. An excerpt:
Materials: The following reagents were used as received: acetonitrile (HPLC grade, Burdick & Jackson, Madison, Wis.), phosphate buffered saline (PBS), pH 7.4 (Sigma-Aldrich, Co., St. Louis, Mo.), water (HPLC grade, JT Baker, Phillipsburg, N.J.), DMSO (EM Science, Merck KGaA, Darmstadt, Germany) and isopropanol (IPA, reagent grade, EMD Chemicals, Gibbstown, N.J.). Propantheline and esmolol (Sigma-Aldrich) were used as the positive control compounds in the assay. Diazepam (Sigma-Aldrich) was used as an internal standard for quantitation. Human whole blood was obtained from BioIVT (Westbury, N.Y.) […]. All other reagents and solvents were of the highest analytical grade supplied by Sigma (St. Louis, Mo.) and were used as received.
Blood Incubations: The in vitro stability of representative KRas G12C inhibitor compounds of the present invention in the presence whole blood was conducted in the following manner. Esmolol or propantheline, which are known to undergo ester hydrolysis by esterases in blood and plasma, were used as the positive controls in the assays. A 10 mM stock solution of propantheline, esmolol, or a compound of the present invention in DMSO was diluted to 500 μM with DMSO. Aliquots of whole blood (600 μL), in triplicate, were placed in the appropriate wells of a polypropylene 96-deep well plate (Axygen Scientific, Union City, Calif.). The blood was diluted to 50% using PBS, pH 7.4 (600 μL). The diluted blood was pre-incubated for 15 minutes at 37° C. Each well was dosed with 12 μL of the 500 μM DMSO stock simultaneously for a final test concentration of 5 μM. The plates were mixed at 600 rpm for 10 seconds on a plate shaker (IKA MTS 2/4 Digital Microtiter Shaker, VWR). Aliquots of 100 μL from each well of whole blood were transferred to three separate 96-deep well plates labeled 0, 60, or 240 minutes. At the end of each designated time point, the red blood cells were lysed with 100 μL of water, mixed at 600 rpm for one minute, and stopped with 800 μL of acetonitrile containing IS (0.625 μM diazepam). The plates were mixed on the plate shaker at 600 rpm for one minute and spun in a centrifuge at 2095×g for 7 minutes at room temperature using an Allegra benchtop centrifuge (Beckman Coulter, Fullerton, Calif.). Supernatant (100 μL) was transferred to a shallow 96-well plate (Costar) using a liquid sample handling system (Apricot, Perkin-Elmer, Boston, Mass.). The addition of 100 μL of water was added to each sample of supernatant for a final volume of 200 μL. The plates were sealed and the contents of each well were analyzed by LC-MS/MS.
Analytical quantitation: The LC-MS/MS system was comprised of an HTS-PAL autosampler (Leap Technologies, Carrboro, N.C.), an HP1200 HPLC (Agilent, Palo Alto, Calif.), and an API4000 triple quadrupole mass spectrometer (PE Sciex, a division of Applied Biosystems, Foster City, Calif.). […] The total run time, including re-equilibration, for a single injection was 2 minutes. Mass spectrometric detection of the analytes was accomplished using the ESI ionization mode. Ion current was optimized during infusion of a stock solution of propantheline, esmolol, or the representative test compound. Analyte responses, including the IS were measured by multiple reaction monitoring (MRM) of transitions unique to each compound.
Calculations: Data were acquired and peak areas were calculated for test compounds and the internal standard using Analyst 1.6.2 software (Sciex). The mean peak area ratios were calculated by averaging the peak area ratios (n=3) of each test compound and the IS for each sample.
Peak area tables were exported to BioAssay Enterprise (CambridgeSoft, Cambridge, Mass.), where the average analyte-to-internal standard peak area ratios were used to calculate percent remaining (% REM) and half-life (t1/2). Percent remaining (f) was calculated by determining the ratio of the peak area ratio at each time point to the peak area ratio of the time-zero samples. […]

Data set [2] concerns the target KRas G12C (Homo sapiens, UniProt P01116, G12C). As to the kind of experiment: Cellular inhibition of KRas G12C measured by Phospho-ERK in NCI-H358 cells. It counts as cell-based. To be noted: pERK(Thr202/Tyr204) normalized with GAPDH, NCI-H358 cells, 3 hours; read-out: IC50. An outline of the steps: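 Readout is pERK(Thr202/Tyr204) immunofluorescence normalized to GAPDH, expressed as percent of DMSO control and fitted with a 4-parameter curve for IC50. Attached NCI-H358 cells received compound for 3 hours in 0.5% DMSO, followed by fixation and methanol permeabilization.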

Chain of KRas G12C (P01116 1-188 isoform P01116-2 G12C): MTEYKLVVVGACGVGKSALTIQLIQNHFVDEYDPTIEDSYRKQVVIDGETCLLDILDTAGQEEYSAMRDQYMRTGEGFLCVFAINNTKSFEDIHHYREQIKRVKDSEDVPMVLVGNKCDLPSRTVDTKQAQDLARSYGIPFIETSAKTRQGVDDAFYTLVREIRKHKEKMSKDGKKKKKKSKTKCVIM

As usually defined, the half-life is the time in which the quantity being followed falls by half. As usually defined, the IC50 is the concentration at which inhibition is half-maximal. In the case of `Cc1cccc2cccc(N3CCc4c(nc(OC[C@@H]5CCCN5C)nc4N4CCN(C(=O)/C=C/C(F)F)[C@@H](CC#N)C4)C3)c12` [Example 495, 2-((S)-1-((E)-4,4-difluorobut-2-enoyl)-4-(7-(8-methylnaphthalen-1-yl)-2-(((S)-1-methylpyrrolidin-2-yl)methoxy)-5,6,7,8-tetrahydropyrido[3,4-d]pyrimidin-4-yl)piperazin-2-yl)acetonitrile], the half-life at 5 µM in data set [1] lay within 3.33 to 16.7 h. Besides, the 50% inhibitory concentration (IC50) in data set [2] lay in the range of 0.0001 to 1 µM.
`C=CC(=O)N1CCN(c2nc(OC[C@@H]3CCCN3C)nc3c2CCN(c2cccc4cccc(C)c24)C3)C[C@@H]1CC#N` [Example 359, 2-[(2S)-4-[7-(8-methyl-1-naphthyl)-2-[[(2S)-1-methylpyrrolidin-2-yl]methoxy]-6,8-dihydro-5H-pyrido[3,4-d]pyrimidin-4-yl]-1-prop-2-enoyl-piperazin-2-yl]acetonitrile]: the half-life at 5 µM in data set [1] was 3.33 to 16.7 h. The IC50 in data set [2] lay within 0.0001 to 1 µM.
Take `Cc1cccc2cccc(N3CCc4c(nc(OC[C@@H]5CCCN5C)nc4N4CCN(C(=O)/C=C/Cn5cccn5)[C@@H](CC#N)C4)C3)c12` [Example 509]: the half-life at 5 µM in data set [1] was over 33.3 h. Further, the IC50 in data set [2] was 0.0001 to 1 µM.
Take `C=C(F)C(=O)N1CCN(c2nc(OC[C@@H]3CCCN3C)nc3c2CCN(c2cccc4cccc(C)c24)C3)C[C@@H]1CC#N` [Example 507]: the half-life at 5 µM in data set [1] was over 33.3 h. Further, in data set [2], the IC50 was 0.0001 to 1 µM.
In the case of `Cc1cccc2cccc(N3CCc4c(nc(OC[C@@H]5CCCN5C)nc4N4CCN(C(=O)/C=C\C#N)[C@@H](CC#N)C4)C3)c12` [Example 502, (Z)-4-((S)-2-(cyanomethyl)-4-(7-(8-methylnaphthalen-1-yl)-2-(((S)-1-methylpyrrolidin-2-yl)methoxy)-5,6,7,8-tetrahydropyrido[3,4-d]pyrimidin-4-yl)piperazin-1-yl)-4-oxobut-2-enenitrile], the half-life at 5 µM in data set [1] lay in the range of 3.33 to 16.7 h. For the same molecule, in data set [2], the IC50 lay in the range of 0.0001 to 1 µM.
For `C=C(C(=O)N1CCN(c2nc(OC[C@@H]3CCCN3C)nc3c2CCN(c2cccc4cccc(Cl)c24)C3)C[C@@H]1CC#N)C(F)(F)F` [Example 504, 2-[(2S)-4-[7-(8-chloro-1-naphthyl)-2-[[(2S)-1-methylpyrrolidin-2-yl]methoxy]-6,8-dihydro-5H-pyrido[3,4-d]pyrimidin-4-yl]-1-[2-(trifluoromethyl)prop-2-enoyl]piperazin-2-yl]acetonitrile] the same measures were at most 3.33 h and 0.0001 to 1 µM.
For `C=C(F)C(=O)N1CCN(c2nc(OC[C@H]3CCCN3C)nc3c2CCN(c2cccc4cccc(C)c24)C3)C[C@@H]1CC#N` [Example 516, 2-((S)-1-(2-fluoroacryloyl)-4-(7-(8-methylnaphthalen-1-yl)-2-(((R)-1-methylpyrrolidin-2-yl)methoxy)-5,6,7,8-tetrahydropyrido[3,4-d]pyrimidin-4-yl)piperazin-2-yl)acetonitrile], in that order: over 33.3 h and 0.0001 to 1 µM.
For `CN1CCC[C@H]1COc1nc2c(c(N3CCN(C(=O)/C=C/C(F)F)[C@@H](CC#N)C3)n1)CCN(c1cccc3cccc(Cl)c13)C2` [Example 484, 2-[(2S)-4-[7-(8-chloro-1-naphthyl)-2-[[(2S)-1-methylpyrrolidin-2-yl]methoxy]-6,8-dihydro-5H-pyrido[3,4-d]pyrimidin-4-yl]-1-[(E)-4,4-difluorobut-2-enoyl]piperazin-2-yl]acetonitrile] the same measures were at most 3.33 h and 0.0001 to 1 µM.
Turning to `C=C(OC)C(=O)N1CCN(c2nc(OC[C@@H]3CCCN3C)nc3c2CCN(c2cccc4cccc(Cl)c24)C3)C[C@@H]1CC#N` [Example 514, 2-[(2S)-4-[7-(8-chloro-1-naphthyl)-2-[[(2S)-1-methylpyrrolidin-2-yl]methoxy]-6,8-dihydro-5H-pyrido[3,4-d]pyrimidin-4-yl]-1-(2-methoxyprop-2-enoyl)piperazin-2-yl] acetonitrile], in data set [1], the half-life at 5 µM is over 33.3 h. In addition, the IC50 in data set [2] was over 1 µM.
With `CN1CCC[C@H]1COc1nc2c(c(N3CCN(C(=O)/C=C/CO)[C@@H](CC#N)C3)n1)CCN(c1cccc3cccc(Cl)c13)C2` [Example 513, 2-[(2S)-4-[7-(8-chloro-1-naphthyl)-2-[[(2S)-1-methylpyrrolidin-2-yl]methoxy]-6,8-dihydro-5H-pyrido[3,4-d]pyrimidin-4-yl]-1-[(E)-4-hydroxybut-2-enoyl]piperazin-2-yl]acetonitrile], the half-life at 5 µM in data set [1] lay within 16.7 to 33.3 h. The IC50 in data set [2] was in the range of 0.0001 to 1 µM.
For the molecule `Cc1cccc2cccc(N3CCc4c(nc(OC[C@@H]5CCCN5C)nc4N4CCN(C(=O)/C=C/CF)[C@@H](CC#N)C4)C3)c12` [Example 506, 2-((S)-1-((E)-4-fluorobut-2-enoyl)-4-(7-(8-methylnaphthalen-1-yl)-2-(((S)-1-methylpyrrolidin-2-yl)methoxy)-5,6,7,8-tetrahydropyrido[3,4-d]pyrimidin-4-yl)piperazin-2-yl)acetonitrile], in data set [1], the half-life at 5 µM was 16.7 to 33.3 h. Further, the half-maximal inhibitory concentration (IC50) in data set [2] is 0.0001 to 1 µM.
